Assay results from patent publication US20020151467A1 (priority 2000, published 2002).

Legend:
Format in all cases: in vivo
nondiabetic rats [1] = assay: Transdermal insulin (Dermulin) vs intraperitoneal insulin injection, blood glucose in rats; details: for Percent of glucose reduction: Group 4: intraperitoneal 12.5 u insulin
Description: All rats weighed 50-80 gms, aged 1 month. Group 1 (control—placebo): 6 rats, Group 2 (Dermulin™, 12.5 u): 5 rats, Group 3 (Dermulin™, 25 u): 5 rats, Group 4 (intraperitoneal injection): 5 rats.
(§1) All rats were fasted 2 hrs before experiments. They were lightly anesthesized by ether. Neck skin was dissected and jugular vein was exposed. 0.1 ml of blood was drawn at time 0, 5, 10, 15, 30, 60, 90, 120, 150, 180, 210, 240, 270, 300 minutes for glucose measurement by Abbott's Precision glucose monitor. Hair was shaved from the abdomen. Group 2 and Group3 had 12.5 u and 25 u of Dermulin™ applied to the abdominal skin respectively.
All data were analyzed using SAS system, Version 6.12. in 2 ways: 1) Simultaneous comparison of multiple groups by Dunnett's t test at 5% significance level. 2) Comparison of slopes of the glucose reduction rate by repeated measures analysis of variance method by the “Mixed Procedure” of the SAS system software.

nondiabetic rats [2] = assay: Hypoglycemic efficacy of oral insulin (Musulin) compared to subcutaneous and intraperitoneal injections in rats; details: 1.67 unit every 5 minutes
Description: All rats weighed 50-80 gms, age of the rats was 1 month. Group 1 (control—placebo): 6 rats; Group 2 (Musulin™): 6 rats; Group 3 (Musulin™): 5 rats; Group 4 (Musulin™): 5 rats; Group 5 (intraperitoneal injection): 5 rats; and Group 6 (subcutaneous injection): 5 rats. All rats were fasted 2 hrs before experiments. They were lightly anesthesized by ether. Neck skin was dissected and the jugular vein was exposed. 0.1 ml of blood was drawn at times 0, 5, 10,15, 30, 60, 90, 120, 150, 180, 210, 240, 270, 300 minutes for glucose measurement by Abbott's Precision glucose monitor. In order to ensure the maximal exposure and absorption of Musulin™ in the rats' tiny oral cavities, the rats were fed constant amounts at preset time periods. […] Group 3 received 3.33 units and Group 4 received 6.67 units every 5 minutes.
All data were analysed using SAS system, Version 6.12. in 2 ways: 1) Simultaneous comparison of multiple groups by Dunnett's t test at 5% significance level. 2) Comparison of slopes of the glucose reduction rate by repeated measures analysis of variance method by the “Mixed Procedure” of the SAS system software.

nondiabetic rats [3] = assay: Transdermal insulin (Dermulin) vs subcutaneous insulin injection, blood glucose in rats; details: for Percent of glucose reduction compared to initial levels: Group 4: subcutaneous 12.5 u insulin
Description: All rats weighed 50-80 gms, aged 1 month. Group 1 (control—placebo): 6 rats, Group 2 (Dermulin™, 12.5 u): 5 rats, Group 3 (Dermulin™, 25 u): 5 rats, Group 4 (subcutaneous injection): 5 rats.
as §1, with “Group 3” for “Group3”
All data were analyzed using SAS system, Version 6.12. in 2 ways: 1) Simultaneous comparison of multiple groups by Dunnett's t test at 5% significance level. 2) Comparison of slopes of the glucose reduction rate by repeated measures analysis of variance method by the” Mixed Procedure” of the SAS system software.

[4] = Group 4: single intraperitoneal injection of 12.5 u insulin
[5] = Group 5: intraperitoneal insulin injection
[6] = Group 4: single subcutaneous injection of 12.5 u insulin
[7] = Group 6: subcutaneous insulin injection

intraperitoneal injection: injection control: insulin given intraperitoneally
Percent of glucose reduction (nondiabetic rats [1]; at 60 minutes): 26.1 (s.d. 13.4) Percent | Percent of glucose reduction (nondiabetic rats [1]; at 120 minutes): 16.5 (s.d. 13) Percent | Percent of glucose reduction (nondiabetic rats [1]; at 180 minutes): 25.8 (s.d. 14.1) Percent | Percent of glucose reduction (nondiabetic rats [1]; at 300 minutes): 27.8 (s.d. 33.6) Percent | Rate of glucose reduction at the slope (nondiabetic rats [1]; [4]): -0.5 mg/min | Statistically significant onset of action (nondiabetic rats [1]; [4]): 5 min | Death from hypoglycemia within 300 minutes (nondiabetic rats [2]; [5]): 80% | Rate of glucose reduction at the maximal slope (nondiabetic rats [2]; [5]): -0.54 mg/min | Statistically significant onset of action (nondiabetic rats [2]; [5]): 10 min | time for 50% rats to achieve 50% glucose reductions (nondiabetic rats [2]; [5]): 13 min | Percent mean reduction of glucose compared to initial levels (nondiabetic rats [2]; Group 5: intraperitoneal insulin injection, at 60 minutes): 30.4 (s.d. 3.8) Percent | Percent mean reduction of glucose compared to initial levels (nondiabetic rats [2]; Group 5: intraperitoneal insulin injection, at 120 minutes): 18.7 (s.d. 15.2) Percent | Percent mean reduction of glucose compared to initial levels (nondiabetic rats [2]; Group 5: intraperitoneal insulin injection, at 300 minutes): 0 (s.d. 0) Percent

subcutaneous injection: injection control: insulin (Humalog) by subcutaneous injection
Rate of glucose reduction at the slope between 30-120 min. (nondiabetic rats [3]; [6]): -0.5 mg/min | Statistically significant onset of action (nondiabetic rats [3]; [6]): 5 min | Percent of glucose reduction compared to initial levels (nondiabetic rats [3]; at 60 minutes): 28 (s.d. 13.4) Percent | Percent of glucose reduction compared to initial levels (nondiabetic rats [3]; at 120 minutes): 21.9 (s.d. 13) Percent | Percent of glucose reduction compared to initial levels (nondiabetic rats [3]; at 180 minutes): 17.2 (s.d. 14.1) Percent | Percent of glucose reduction compared to initial levels (nondiabetic rats [3]; at 300 minutes): 0% | Death from hypoglycemia within 300 minutes (nondiabetic rats [2]; [7]): 100% | Rate of glucose reduction at the maximal slope (nondiabetic rats [2]; [7]): -0.51 mg/min | Statistically significant onset of action (nondiabetic rats [2]; [7]): 10 min | time for 50% rats to achieve 50% glucose reductions (nondiabetic rats [2]; [7]): 15 min | Percent mean reduction of glucose compared to initial levels (nondiabetic rats [2]; Group 6: subcutaneous insulin injection, at 60 minutes): 39.8 (25.5) Percent | Percent mean reduction of glucose compared to initial levels (nondiabetic rats [2]; Group 6: subcutaneous insulin injection, at 120 minutes): 25.5 (s.d. 31.7) Percent | Percent mean reduction of glucose compared to initial levels (nondiabetic rats [2]; Group 6: subcutaneous insulin injection, at 300 minutes): 41.1%
